# In patent US12576129B2, “Anthelmintic compositions and methods” (priority 2016, dated 2026):
# Where two headings read alike, the source gives them in different places.
# Legend:
# BaCC [1] = test: Time to kill: CFU/mL of BaCC after terpene treatment; type: cell-based, Bacillus thuringiensis
# Protocol: In order to determine which terpene kills BaCC in the shortest amount of time, we incubated 5 mL of BaCC culture with three terpenes at 1 mg/mL at 4° C. for 1, 2, 3 and 5 hours. No terpene control and no bacteria controls were carried out simultaneously. After incubation with terpenes, samples were centrifuged and the pellets were washed with 5 mL of 1M NaCl once and 5 mL of sterile distilled water twice in order to remove the terpenes. The pellets were re-suspended in the original volume and plated on LB agar with kanamycin and erythromycin. Plates were incubated overnight at 30° C.; the next day, the number of colonies on the plates were enumerated and colony forming units (CFU)/mL calculated.
# To assess terpene killing at shorter time points, BaCC culture was grown in 3× LB for 48 h as described above and 60 ml of cultures were aliquoted in sterile tubes. Carvacrol and geraniol were added to the final concentration of 1 mg/mL, and the tubes were placed on a rotator at 4° C. for 15 minutes. The negative control was prepared using sterile water instead of terpenes. At the end of the incubation period, the tubes were centrifuged at 2000× g for 10 minutes and pellets washed with 60 ml of 1 M NaCl once and washed with 60 mL of sterile distilled water twice. Pellets were re-suspended in 1.2 mL of sterile distilled water to concentrate the culture 50 times. Concentrated terpene treated and control samples were plated on LB agar plates containing kanamycin and erythromycin and incubated overnight at 30° C. The number of colonies were counted the next day and CFU/mL calculated for each time point.
# E. coli = test: CFU of E. coli after carvacrol treatment; type: cell-based, Escherichia coli; details: 1 mg/mL carvacrol for 15 minutes
# Protocol: Bioactivity of carvacrol-treated Crystal-E. coli on C. elegans. Escherichia coli cells expressing nematicidal Crystal protein or empty vector were treated for 15 minutes with 1 mg/mL carvacrol. The cells were washed in sterile water 3 times. CFUs were determined for untreated and carvacrol-treated cells by serial dilution plating on LB plates. In addition, C. elegans nematode L4 hermaphrodites were fed overnight 1.8 ×10^7 cells/mL of E. coli untreated or carvacrol-treated, Crystal expressing and empty vector (4 conditions) at 25° C. for 16 hr.
# [2] = cited from earlier work
# BaCC [3] = test: Carvacrol wash protocols: alive bacteria (CFU) after treatment; type: cell-based, Bacillus thuringiensis
# Protocol: To reduce carvacrol residue in the final product, we tested different strategies. In order to reduce the carvacrol residue in the final IBaCC product, first the total amount of carvacrol was reduced by concentrating the cultures before carvacrol treatment. The cultures were centrifuged, and the pellets were re-suspended in sterile distilled water in half or one fourth of the original culture volume. Then, carvacrol was added at 1 mg/mL concentration. Second, carvacrol was removed from the culture by increasing the solubility of carvacrol in the water phase. […] As such, 5% and 15% of ethanol water was used in the washing steps following the IBaCC incubation with carvacrol. Another strategy employed was to increase the volume of distilled water during the washing steps to remove more carvacrol per wash step (for instance, only 25 mg carvacrol can be solubilized with 20 mL of water while 50 mg carvacrol can be solubilized with 40 mL of water.) Lastly, since the temperature affects carvacrol solubility, the incubation and washing steps were carried out at room temperature instead of 4° C. The positive control sample was treated with 1 mg/mL carvacrol without concentrating the culture prior to carvacrol treatment, incubated at 4° C., washed with 1M NaCl once and distilled water twice using 1:1 culture to wash volume ratio. No terpene control sample received water instead of carvacrol, but the incubation and washing steps were carried out in the same manner as the positive control. BaCC culture was grown in 3× LB for 48 hours, and 40 mL of BaCC culture was used for each condition. After washes, the culture was concentrated 20 times. Samples were plated for CFU/mL analysis as described earlier, and carvacrol residue was assessed by HPLC as follows.
# BaCC [4] = test: Minimum inhibitory concentration of terpenes against BaCC (broth microdilution); type: cell-based; details: Bacillus thuringiensis; 24 h at 30° C. in LB; no absorbance increase; read-out: MIC μg/mL (100)
# Protocol: Three terpenes were tested against BaCC including: carvacrol, geraniol and farnesol, by using the broth microdilution method as described in Agaisse and Lereclus, J. Bacteriol. 176, 4734-4741, 1994 and Agaisse and Lereclus, Mol. Microbiol. 13, 97-107, 1994 with some modifications. Briefly, BaCC from a single colony was grown in 5 mL of LB medium supplemented with 10 μg/mL erythromycin+200 μg/mL kanamycin overnight (O.D. (600) of 4.8, 2.3×10^7 CFU/mL). Terpene solutions were prepared at 1 mg/mL in LB. One hundred μL of two-fold serial dilutions of each terpene in LB were prepared in 96-well microtiter plates over the range of 1000 to 3.9 μg/mL in triplicate. LB without terpenes was used as a negative control. BaCC culture was diluted 100 times, and 100 μL of BaCC culture was added to the wells. Absorbance at 600 nm was recorded before and after the incubation to monitor bacterial growth. The MICs were determined after incubation for 24 h at 30° C. without shaking.
# [5] = Concentrated 2X = 20 ml before adding carvacrol (1 mg/mL)
# [6] = Concentrated 4X = 10 ml before adding carvacrol (1 mg/mL)
# [7] = Control: 4C, no concentration, 1:1 culture to wash volume (1 mg/mL carvacrol)
# [8] = Incubated and washed at room temperature
# [9] = Wash volume increased 2X (e.g., 40 ml wash for 20 ml culture)
# [10] = Washes were done with 5% ethanol in water
# [11] = Washes were done with 15% ethanol in water
compound,measurement,setting,value
"Cc1ccc(C(C)C)cc1O [Carvacrol, carvacrol]",CFU/ml (1 mg/mL terpene treatment for time indicated),"BaCC [1]; 15 min at 4° C., culture concentrated 50 times (50X conc.) before plating",0 CFU/ml
same,CFU/ml (1 mg/mL terpene treatment for time indicated),BaCC [1]; 1 h at 4° C.,0 CFU/ml
same,CFU/ml (1 mg/mL terpene treatment for time indicated),BaCC [1]; 3 h at 4° C.,0 CFU/ml
same,CFU/ml (1 mg/mL terpene treatment for time indicated),BaCC [1]; 5 h at 4° C.,0 CFU/ml
same,killing of BaCC (spo0A- cells expressing Cry5B),BaCC [1]; carvacrol treatment,complete killing of the Bacilli
same,comparison of antimicrobial efficiency among the 3 terpenes,"BaCC [1]; carvacrol, geraniol, farnesol against BaCC","most efficient, killing the quickest and at the lowest concentration"
same,CFU/ml (1 mg/mL terpene treatment for time indicated),BaCC [1]; time 0,2.31 × 10^7 CFU/ml
same,killing of E. coli (CFUs),E. coli,effectively killed the E. coli
same,log P octanol/water,[2],3.64
same,amount that can be solubilized,[2]; with 20 mL of water,25 mg
same,amount that can be solubilized,[2]; with 40 mL of water,50 mg
same,Number of alive bacteria in 1 ml 20X concentrate,BaCC [3]; [5],0
same,Number of alive bacteria in 1 ml culture,BaCC [3]; [5],0
same,Number of alive bacteria in 1 ml 20X concentrate,BaCC [3]; [6],0
same,Number of alive bacteria in 1 ml culture,BaCC [3]; [6],0
same,Number of alive bacteria in 1 ml 20X concentrate,BaCC [3]; [7],0
same,Number of alive bacteria in 1 ml culture,BaCC [3]; [7],0
same,Number of alive bacteria in 1 ml 20X concentrate,BaCC [3]; [8],0
same,Number of alive bacteria in 1 ml culture,BaCC [3]; [8],0
same,Number of alive bacteria in 1 ml 20X concentrate,BaCC [3]; [9],140
same,Number of alive bacteria in 1 ml culture,BaCC [3]; [9],7
same,Number of alive bacteria in 1 ml 20X concentrate,BaCC [3]; [10],0
same,Number of alive bacteria in 1 ml culture,BaCC [3]; [10],0
same,Number of alive bacteria in 1 ml 20X concentrate,BaCC [3]; [11],160
same,Number of alive bacteria in 1 ml culture,BaCC [3]; [11],8
same,MIC,BaCC [4],125 µg/mL
